Measurements published in the NIST ThermoML archive (doi:10.1016/j.fluid.2012.11.030).
Numbers after ± are expanded uncertainties.

Key:
[1] = Crystal; DTA
[2] = Molar enthalpy of transition or fusion; conditions: Crystal; DSC

Normal melting temperature [1]	Molar enthalpy of transition or fusion [2]	SMILES
-19.06 ± 0.7 °C	11.4 ± 0.311 kcal/mol	CCCCCCCC/C=C\CCCCCCCC(=O)OCC [ethyl (Z)-9-octadeceneoate]
0.1 ± 0.7 °C	9.52 ± 0.263 kcal/mol	CCCCCCCCCCCC(=O)OCC [ethyl dodecanoate]
25.08 ± 0.7 °C	13.3 ± 0.359 kcal/mol	CCCCCCCCCCCCCCCC(=O)OCC [ethyl hexadecanoate]
